# Results reported in patent publication US20250248998A1, “LRRK2 Inhibitors” (Brenig Therapeutics, Inc., priority 2022, published 2025).
# Legend:
# LRRK2[G2019S] = LRRK2[G2019S] (Homo sapiens, UniProt Q5S007, G2019S); assay: Cell-based NanoBRET target engagement assay in HEK293 cells transfected with LRRK2 (G2019S)-NanoLuc fusion vector; design: expressed in transfected cells; host or cells: HEK293 (ATCC); conditions: compound treatment 1 h
# Protocol: (§1) Example C. Cell-Based NanoBRET Target Engagement Assay in 11EK293 Cells Transiently Transfected with LRRK2 WT- or LRRK2 (G2019S)-Nano Luc Fusion Vector
# (§2) H1EK293 (ATCC) cells were transfected with […] LRRK2 WT or LRRK2 (G2019S) and 9 μg transfection carrier DNA. The transfected cells were treated with the compounds (starting at 1 μM, 10-dose with 3-fold dilution) and reference compounds CEP-701 or Staurosporine (starting at 1 μM, 10-dose with 3-fold dilution); compound treatment time: 1 h. LRRK2 WT and LRRK2 (G2019S) target engagement was measured by NanoBRET assay. Curve fits were performed only when % NanoBret signal at the highest concentration of compounds was less than […]. Assay format: 384-well format, 4000 cells/well. The IC50 values are shown in Table C, wherein “A” corresponds to IC50≤50.0 nM, “B” corresponds to 50.0 nM≤IC50<100.0 nM, “C” corresponds to 100.0 nM≤IC50.
# LRRK2 WT = LRRK2 WT (Homo sapiens, UniProt Q5S007); assay: Cell-based NanoBRET target engagement assay in HEK293 cells transfected with LRRK2 WT-NanoLuc fusion vector; design: expressed in transfected cells; host or cells: HEK293 (ATCC); conditions: compound treatment 1 h
# Protocol: as §1, §2
# LRRK2 WT, sequence (Q5S007 whole entry, the tested form may be a part): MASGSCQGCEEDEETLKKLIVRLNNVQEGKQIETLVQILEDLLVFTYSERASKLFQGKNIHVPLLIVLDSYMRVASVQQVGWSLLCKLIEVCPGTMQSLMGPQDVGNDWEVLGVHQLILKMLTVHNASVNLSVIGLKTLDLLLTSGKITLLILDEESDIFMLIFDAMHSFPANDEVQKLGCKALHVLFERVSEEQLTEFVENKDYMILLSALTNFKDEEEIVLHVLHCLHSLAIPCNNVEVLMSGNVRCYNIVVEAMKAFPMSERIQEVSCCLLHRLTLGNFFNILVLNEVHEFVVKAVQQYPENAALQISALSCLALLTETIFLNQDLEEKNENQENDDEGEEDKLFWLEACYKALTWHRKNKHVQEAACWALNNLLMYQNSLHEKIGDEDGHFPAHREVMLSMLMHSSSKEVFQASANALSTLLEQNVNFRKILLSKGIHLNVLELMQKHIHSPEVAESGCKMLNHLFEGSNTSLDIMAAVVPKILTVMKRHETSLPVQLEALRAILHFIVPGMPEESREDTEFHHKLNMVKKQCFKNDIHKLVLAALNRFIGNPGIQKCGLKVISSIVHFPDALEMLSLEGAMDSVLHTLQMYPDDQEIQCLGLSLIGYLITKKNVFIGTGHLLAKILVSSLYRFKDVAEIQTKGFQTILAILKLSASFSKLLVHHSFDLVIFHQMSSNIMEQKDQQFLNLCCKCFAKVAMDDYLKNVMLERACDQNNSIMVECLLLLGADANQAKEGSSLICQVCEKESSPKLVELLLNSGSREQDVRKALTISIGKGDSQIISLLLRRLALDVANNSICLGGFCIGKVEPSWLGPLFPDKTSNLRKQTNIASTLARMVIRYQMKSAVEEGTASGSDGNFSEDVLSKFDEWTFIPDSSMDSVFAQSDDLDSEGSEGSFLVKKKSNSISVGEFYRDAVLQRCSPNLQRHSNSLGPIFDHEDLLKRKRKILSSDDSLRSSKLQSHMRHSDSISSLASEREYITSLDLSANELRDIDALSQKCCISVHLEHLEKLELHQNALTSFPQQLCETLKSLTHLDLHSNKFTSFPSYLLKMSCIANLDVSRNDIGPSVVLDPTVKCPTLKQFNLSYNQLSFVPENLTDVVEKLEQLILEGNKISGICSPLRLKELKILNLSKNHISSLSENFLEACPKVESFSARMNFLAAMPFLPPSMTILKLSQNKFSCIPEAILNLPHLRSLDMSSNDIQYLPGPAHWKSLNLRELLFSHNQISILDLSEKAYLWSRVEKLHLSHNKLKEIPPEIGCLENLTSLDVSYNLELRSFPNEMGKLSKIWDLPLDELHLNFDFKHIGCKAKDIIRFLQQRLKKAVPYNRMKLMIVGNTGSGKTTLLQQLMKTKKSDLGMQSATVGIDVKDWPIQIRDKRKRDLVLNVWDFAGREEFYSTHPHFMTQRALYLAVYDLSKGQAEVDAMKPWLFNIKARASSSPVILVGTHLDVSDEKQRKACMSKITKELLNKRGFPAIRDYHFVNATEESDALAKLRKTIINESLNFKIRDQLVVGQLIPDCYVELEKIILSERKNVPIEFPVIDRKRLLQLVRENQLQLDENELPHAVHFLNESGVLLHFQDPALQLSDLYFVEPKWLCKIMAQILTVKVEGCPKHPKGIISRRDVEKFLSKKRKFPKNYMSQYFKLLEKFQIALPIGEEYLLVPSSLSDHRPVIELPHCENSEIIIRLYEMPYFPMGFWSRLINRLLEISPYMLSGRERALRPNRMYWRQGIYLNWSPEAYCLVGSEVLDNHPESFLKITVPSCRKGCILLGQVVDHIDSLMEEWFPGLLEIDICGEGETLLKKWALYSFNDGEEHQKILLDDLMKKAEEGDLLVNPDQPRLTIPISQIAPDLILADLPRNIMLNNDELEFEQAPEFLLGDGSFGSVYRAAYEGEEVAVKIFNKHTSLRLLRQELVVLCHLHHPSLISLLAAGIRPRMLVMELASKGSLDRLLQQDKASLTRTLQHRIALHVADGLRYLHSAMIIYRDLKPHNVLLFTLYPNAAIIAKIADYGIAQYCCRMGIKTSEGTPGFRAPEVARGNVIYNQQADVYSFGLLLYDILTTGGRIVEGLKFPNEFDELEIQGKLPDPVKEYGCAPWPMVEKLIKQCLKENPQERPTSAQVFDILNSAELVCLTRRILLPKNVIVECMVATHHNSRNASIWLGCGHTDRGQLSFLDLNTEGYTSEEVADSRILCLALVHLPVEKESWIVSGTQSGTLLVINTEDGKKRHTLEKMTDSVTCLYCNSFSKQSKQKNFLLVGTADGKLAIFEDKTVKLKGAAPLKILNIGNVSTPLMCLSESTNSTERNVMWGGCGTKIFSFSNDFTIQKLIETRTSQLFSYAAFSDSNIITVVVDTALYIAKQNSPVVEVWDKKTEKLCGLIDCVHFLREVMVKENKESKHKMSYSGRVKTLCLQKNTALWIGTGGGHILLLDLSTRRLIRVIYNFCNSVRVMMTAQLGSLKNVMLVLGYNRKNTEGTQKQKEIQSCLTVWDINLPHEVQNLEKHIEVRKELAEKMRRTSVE
# LRRK2[G2019S], sequence (Q5S007 whole entry G2019S, the tested form may be a part): as the sequence (Q5S007 whole entry, the tested form may be a part) above, with G2019S counted along it
SMILES,IC50 (LRRK2[G2019S]) [nM],IC50 (LRRK2 WT) [nM]
"Cn1nc(-c2n[nH]c3ccc(OC4(C)CC4)cc23)cc(N2CCC(C)(C)NC(C)(C)C2)c1=O [Compound 68, 2-methyl-6-[5-(1-methylcyclopropoxy)-1H-indazol-3-yl]-4-(3,3,5,5-tetramethyl-1,4-diazepan-1-yl)pyridazin-3-one]",≥ 100,≥ 100
"Cn1nc(-c2n[nH]c3ccc(OC4(C)CC4)cc23)cc(N2CCCNC(C)(C)C2)c1=O [Compound 67, 4-(3,3-dimethyl-1,4-diazepan-1-yl)-2-methyl-6-[5-(1-methylcyclopropoxy)-1H-indazol-3-yl]pyridazin-3-one]",≥ 100,≥ 100
"Cn1nc(-c2n[nH]c3ccc(OC4(C)CC4)cc23)cc(N2CCC(O)C(F)CC2)c1=O (centres unmarked) [Compound 82, 4-(4-fluoro-5-hydroxy-azepan-1-yl)-2-methyl-6-[5-(1-methylcyclopropoxy)-1H-indazol-3-yl]pyridazin-3-one]",≤ 50,≤ 50
"Cn1nc(-c2n[nH]c3ccc(OC4(C)CC4)cc23)cc(N2CCOCC(CO)C2)c1=O (centres unmarked) [Compound 88, 4-[6-(hydroxymethyl)-1,4-oxazepan-4-yl]-2-methyl-6-[5-(1-methylcyclopropoxy)-1H-indazol-3-yl]pyridazin-3-one]",≤ 50,≤ 50
"CN1CCN(c2cc(-c3n[nH]c4ccc(OC5(C)CC5)cc34)nn(C)c2=O)CC(F)(F)C1 [Compound 64, 4-(6,6-difluoro-4-methyl-1,4-diazepan-1-yl)-2-methyl-6-[5-(1-methylcyclopropoxy)-1H-indazol-3-yl]pyridazin-3-one]",≤ 50,50 to 100
"Cn1nc(-c2n[nH]c3ccc(OC4(C)CC4)cc23)cc(N2CC(O)C(C)(C)C2)c1=O (centres unmarked) [Compound 62, 4-(4-hydroxy-3,3-dimethyl-pyrrolidin-1-yl)-2-methyl-6-[5-(1-methylcyclopropoxy)-1H-indazol-3-yl]pyridazin-3-one]",≤ 50,≤ 50
"Cn1nc(-c2n[nH]c3ccc(OC4(C)CC4)cc23)cc(N2CCNCC(C)(O)C2)c1=O (centres unmarked) [Compound 93, 4-(6-hydroxy-6-methyl-1,4-diazepan-1-yl)-2-methyl-6-[5-(1-methylcyclopropoxy)-1H-indazol-3-yl]pyridazin-3-one]",≥ 100,≥ 100
"Cn1nc(-c2n[nH]c3ccc(OC4(C)CC4)cc23)cc(N2CCOC(CO)CC2)c1=O (centres unmarked) [Compound 92, 4-[7-(hydroxymethyl)-1,4-oxazepan-4-yl]-2-methyl-6-[5-(1-methylcyclopropoxy)-1H-indazol-3-yl]pyridazin-3-one]",≤ 50,≤ 50
"Cn1nc(-c2n[nH]c3ccc(OC4(C)CC4)cc23)cc(N2CC(F)C3(CC3)C2)c1=O (centres unmarked) [Compound 57, 4-(7-fluoro-5-azaspiro[2.4]heptan-5-yl)-2-methyl-6-[5-(1-methylcyclopropoxy)-1H-indazol-3-yl]pyridazin-3-one]",≤ 50,≤ 50
"Cn1nc(-c2n[nH]c3ccc(OC4(C)CC4)cc23)cc(N2CC(F)C(C)(C)C2)c1=O (centres unmarked) [Compound 55, 4-(4-fluoro-3,3-dimethyl-pyrrolidin-1-yl)-2-methyl-6-[5-(1-methylcyclopropoxy)-1H-indazol-3-yl]pyridazin-3-one]",≤ 50,≤ 50
"CC(C)N1CCCN(c2cc(-c3n[nH]c4ccc(OC5(C)CC5)cc34)nn(C)c2=O)CC1 [Compound 96, 4-(4-isopropyl-1,4-diazepan-1-yl)-2-methyl-6-[5-(1-methylcyclopropoxy)-1H-indazol-3-yl]pyridazin-3-one]",≤ 50,≤ 50
"CC1CCN(c2cc(-c3n[nH]c4ccc(OC5(C)CC5)cc34)nn(C)c2=O)CCC1O (centres unmarked) [Compound 78, 4-(4-hydroxy-5-methyl-azepan-1-yl)-2-methyl-6-[5-(1-methylcyclopropoxy)-1H-indazol-3-yl]pyridazin-3-one]",≤ 50,≤ 50
"Cn1nc(-c2n[nH]c3ccc(OC4(C)CC4)cc23)cc(N2CCCOCC2)c1=O [Compound 76, 2-methyl-6-[5-(1-methylcyclopropoxy)-1H-indazol-3-yl]-4-(1,4-oxazepan-4-yl)pyridazin-3-one]",≤ 50,≤ 50
"Cn1nc(-c2n[nH]c3ccc(OC4(C)CC4)cc23)cc(N2CCCCC(C)(O)C2)c1=O (centres unmarked) [Compound 81, 4-(3-hydroxy-3-methyl-azepan-1-yl)-2-methyl-6-[5-(1-methylcyclopropoxy)-1H-indazol-3-yl]pyridazin-3-one]",≤ 50,≤ 50
"CC1(Oc2ccc3[nH]nc(-c4cc(N5CCOCC6(CC6)C5)c(=O)n(C5CC5)n4)c3c2)CC1 [Compound 53, 2-cyclopropyl-6-[5-(1-methylcyclopropoxy)-1H-indazol-3-yl]-4-(5-oxa-8-azaspiro[2.6]nonan-8-yl)pyridazin-3-one]",≤ 50,≤ 50
"Cn1nc(-c2n[nH]c3ccc(OC4(C)CC4)cc23)cc(N2CCOCC(C)(O)C2)c1=O (centres unmarked) [Compound 90, 4-(6-hydroxy-6-methyl-1,4-oxazepan-4-yl)-2-methyl-6-[5-(1-methylcyclopropoxy)-1H-indazol-3-yl]pyridazin-3-one]",≤ 50,≤ 50
"Cn1nc(-c2n[nH]c3ccc(OC4(C)CC4)cc23)cc(N2CCCCC(CO)C2)c1=O (centres unmarked) [Compound 75, 4-[3-(hydroxymethyl)azepan-1-yl]-2-methyl-6-[5-(1-methylcyclopropoxy)-1H-indazol-3-yl]pyridazin-3-one]",≤ 50,≤ 50
"CC1(Oc2ccc3[nH]nc(-c4cc(N5CC(C)(C)C6COCC65)c(=O)n(C5CC5)n4)c3c2)CC1 (centres unmarked) [Compound 49, 2-cyclopropyl-4-(3,3-dimethyl-3a,4,6,6a-tetrahydro-2H-furo[3,4-b]pyrrol-1-yl)-6-[5-(1-methylcyclopropoxy)-1H-indazol-3-yl]pyridazin-3-one]",≤ 50,≤ 50

# More lines, now with the values ahead:
IC50 (LRRK2[G2019S]) [nM],IC50 (LRRK2 WT) [nM],SMILES
≤ 50,≤ 50,"CC1(Oc2ccc3[nH]nc(-c4cc(N5CC(F)C(C)(C)C5)c(=O)n(C5CC5)n4)c3c2)CC1 (centres unmarked) [Compound 61, 2-cyclopropyl-4-(4-fluoro-3,3-dimethyl-pyrrolidin-1-yl)-6-[5-(1-methylcyclopropoxy)-1H-indazol-3-yl]pyridazin-3-one]"
≤ 50,≤ 50,"Cn1nc(-c2n[nH]c3ccc(OC4(C)CC4)cc23)cc(N2CCC(C(C)(C)O)C2)c1=O (centres unmarked) [Compound 85, 4-[3-(1-hydroxy-1-methyl-ethyl)pyrrolidin-1-yl]-2-methyl-6-[5-(1-methylcyclopropoxy)-1H-indazol-3-yl]pyridazin-3-one]"
≤ 50,50 to 100,"Cn1nc(-c2n[nH]c3ccc(OC4(C)CC4)cc23)cc(N2CCCOC(C)(C)C2)c1=O [Compound 73, 4-(2,2-dimethyl-1,4-oxazepan-4-yl)-2-methyl-6-[5-(1-methylcyclopropoxy)-1H-indazol-3-yl]pyridazin-3-one]"
≤ 50,≤ 50,"CC1(Oc2ccc3[nH]nc(-c4cc(N5CC(F)C6(CC6)C5)c(=O)n(C5CC5)n4)c3c2)CC1 (centres unmarked) [Compound 59, 2-cyclopropyl-4-(7-fluoro-5-azaspiro[2.4]heptan-5-yl)-6-[5-(1-methylcyclopropoxy)-1H-indazol-3-yl]pyridazin-3-one]"
≤ 50,≤ 50,"Cn1nc(-c2n[nH]c3ccc(OC4(C)CC4)cc23)cc(N2CCNC(C(F)(F)F)CC2)c1=O (centres unmarked) [Compound 74, 2-methyl-6-[5-(1-methylcyclopropoxy)-1H-indazol-3-yl]-4-[5-(trifluoromethyl)-1,4-diazepan-1-yl]pyridazin-3-one]"
≤ 50,≤ 50,"CN1CCN(c2cc(-c3n[nH]c4ccc(OC5(C)CC5)cc34)nn(C)c2=O)CCC1C(F)(F)F (centres unmarked) [Compound 65, 2-methyl-6-[5-(1-methylcyclopropoxy)-1H-indazol-3-yl]-4-[4-methyl-5-(trifluoromethyl)-1,4-diazepan-1-yl]pyridazin-3-one]"
≤ 50,≤ 50,"CC1CCN(c2cc(-c3n[nH]c4ccc(OC5(C)CC5)cc34)nn(C)c2=O)CC(C)O1 (centres unmarked) [Compound 70, 4-(2,7-dimethyl-1,4-oxazepan-4-yl)-2-methyl-6-[5-(1-methylcyclopropoxy)-1H-indazol-3-yl]pyridazin-3-one]"
≤ 50,≤ 50,"Cn1nc(-c2n[nH]c3ccc(OC4(C)CC4)cc23)cc(N2CCCN(CC(C)(C)O)CC2)c1=O [Compound 84, 4-[4-(2-hydroxy-2-methyl-propyl)-1,4-diazepan-1-yl]-2-methyl-6-[5-(1-methylcyclopropoxy)-1H-indazol-3-yl]pyridazin-3-one]"
≤ 50,≤ 50,"CN1CCCN(c2cc(-c3n[nH]c4ccc(OC5(C)CC5)cc34)nn(C)c2=O)CC1 [Compound 63, 2-methyl-6-[5-(1-methylcyclopropoxy)-1H-indazol-3-yl]-4-(4-methyl-1,4-diazepan-1-yl)pyridazin-3-one]"
≤ 50,≤ 50,"Cn1nc(-c2n[nH]c3ccc(OC4(C)CC4)cc23)cc(N2CCCC(C)(O)CC2)c1=O (centres unmarked) [Compound 79, 4-(4-hydroxy-4-methyl-azepan-1-yl)-2-methyl-6-[5-(1-methylcyclopropoxy)-1H-indazol-3-yl]pyridazin-3-one]"
